Measured values taken from ChEMBL document CHEMBL1944578, “Synthesis and anticonvulsant activity of novel 2,6-diketopiperazine derivatives. Part 2: Perhydropyrido[1,2-a]pyrazines” (Eur J Med Chem, 2012).
The source made the active and inactive calls. The rule behind the calls is not given here.

Tests used:
Mus musculus [1] = assay: Anticonvulsant activity in Carworth farms No.1 albino mouse assessed as protection against 6 Hz electric current-induced seizure at 100 mg/kg, ip measured after 1 hrs; assay type: functional, organism-based; design: dose 100 mg/kg
Mus musculus [2] = assay: Anticonvulsant activity in Carworth farms No.1 albino mouse assessed as protection against maximum electroshock at 300 mg/kg, ip measured after 0.5 hrs; assay type: functional, organism-based; design: dose 300 mg/kg
Mus musculus [3] = assay: Anticonvulsant activity in Carworth farms No.1 albino mouse assessed as protection against 6 Hz electric current-induced seizure at 100 mg/kg, ip measured after 2 hrs; assay type: functional, organism-based; design: dose 100 mg/kg
Mus musculus [4] = assay: Neurotoxicity in Carworth farms No.1 albino mouse assessed as neurological impairment at 100 mg/kg, ip measured after 1 hr; assay type: toxicity, organism-based; design: dose 100 mg/kg, route intraperitoneal; details: in vivo
Mus musculus [5] = assay: Anticonvulsant activity in Carworth farms No.1 albino mouse assessed as protection against subcutaneous metrazole-induced seizures at 300 mg/kg, ip measured after 0.5 hrs; assay type: functional, organism-based; design: dose 300 mg/kg
Mus musculus [6] = assay: Anticonvulsant activity in Carworth farms No.1 albino mouse assessed as protection against 6 Hz electric current-induced seizure at 100 mg/kg, ip measured after 4 hrs; assay type: functional, organism-based; design: dose 100 mg/kg
Mus musculus [7] = assay: Anticonvulsant activity in ip dosed Carworth farms No.1 albino mouse assessed as protection against 6 Hz electric current-induced seizure measured after 0.25 hrs; assay type: functional
Mus musculus [8] = assay: Neurotoxicity in Carworth farms No.1 albino mouse assessed as neurological impairment at 100 mg/kg, ip measured after 2 hr; assay type: toxicity, organism-based; design: dose 100 mg/kg, route intraperitoneal; details: in vivo
Mus musculus [9] = assay: Anticonvulsant activity in Carworth farms No.1 albino mouse assessed as protection against 6 Hz electric current-induced seizure at 100 mg/kg, ip measured after 0.25 hrs; assay type: functional, organism-based; design: dose 100 mg/kg
Mus musculus [10] = assay: Anticonvulsant activity in Carworth farms No.1 albino mouse assessed as protection against subcutaneous metrazole-induced seizures at 100 mg/kg, ip measured after 0.5 hrs; assay type: functional, organism-based; design: dose 100 mg/kg
Mus musculus [11] = assay: Neurotoxicity in Carworth farms No.1 albino mouse assessed as neurological impairment at 100 mg/kg, ip measured after 0.5 hrs; assay type: toxicity, organism-based; design: dose 100 mg/kg, route intraperitoneal; details: in vivo
Mus musculus [12] = assay: Anticonvulsant activity in Carworth farms No.1 albino mouse assessed as protection against 6 Hz electric current-induced seizure at 100 mg/kg, ip measured after 0.5 hrs; assay type: functional, organism-based; design: dose 100 mg/kg
Mus musculus [13] = assay: Anticonvulsant activity in Carworth farms No.1 albino mouse assessed as protection against maximum electroshock at 100 mg/kg, ip measured after 0.5 hrs; assay type: functional, organism-based; design: dose 100 mg/kg
Mus musculus [14] = assay: Neurotoxicity in Carworth farms No.1 albino mouse assessed as neurological impairment at 100 mg/kg, ip measured after 0.25 hrs; assay type: toxicity, organism-based; design: dose 100 mg/kg, route intraperitoneal; details: in vivo
Mus musculus [15] = assay: Anticonvulsant activity in Carworth farms No.1 albino mouse assessed as protection against maximum electroshock at 300 mg/kg, ip measured after 4 hrs; assay type: functional, organism-based; design: dose 300 mg/kg
Mus musculus [16] = assay: Neurotoxicity in Carworth farms No.1 albino mouse assessed as neurological impairment at 100 mg/kg, ip measured after 4 hrs; assay type: toxicity, organism-based; design: dose 100 mg/kg, route intraperitoneal; details: in vivo
Mus musculus [17] = assay: Anticonvulsant activity in Carworth farms No.1 albino mouse assessed as protection against subcutaneous metrazole-induced seizures at 30 mg/kg, ip measured after 0.5 hrs; assay type: functional, organism-based; design: dose 30 mg/kg
Mus musculus [18] = assay: Neurotoxicity in Carworth farms No.1 albino mouse assessed as neurological impairment at 30 mg/kg, ip measured after 0.5 hrs; assay type: toxicity, organism-based; design: dose 30 mg/kg, route intraperitoneal; details: in vivo
Mus musculus [19] = assay: Anticonvulsant activity in Carworth farms No.1 albino mouse assessed as protection against subcutaneous metrazole-induced seizures at 300 mg/kg, ip measured after 4 hrs; assay type: functional, organism-based; design: dose 300 mg/kg
Mus musculus [20] = assay: Anticonvulsant activity in Carworth farms No.1 albino mouse assessed as protection against maximum electroshock at 30 mg/kg, ip measured after 4 hrs; assay type: functional, organism-based; design: dose 30 mg/kg
Mus musculus [21] = assay: Anticonvulsant activity in Carworth farms No.1 albino mouse assessed as protection against subcutaneous metrazole-induced seizures at 30 mg/kg, ip measured after 4 hrs; assay type: functional, organism-based; design: dose 30 mg/kg
Mus musculus [22] = assay: Anticonvulsant activity in Carworth farms No.1 albino mouse assessed as protection against maximum electroshock at 30 mg/kg, ip measured after 0.5 hrs; assay type: functional, organism-based; design: dose 30 mg/kg
Mus musculus [23] = assay: Neurotoxicity in Carworth farms No.1 albino mouse assessed as neurological impairment at 300 mg/kg, ip measured after 4 hrs; assay type: toxicity, organism-based; design: dose 300 mg/kg, route intraperitoneal; details: in vivo
Mus musculus [24] = assay: Neurotoxicity in Carworth farms No.1 albino mouse assessed as neurological impairment at 30 mg/kg, ip measured after 4 hrs; assay type: toxicity, organism-based; design: dose 30 mg/kg, route intraperitoneal; details: in vivo
Mus musculus [25] = assay: Neurotoxicity in Carworth farms No.1 albino mouse assessed as neurological impairment at 300 mg/kg, ip measured after 0.5 hrs; assay type: toxicity, organism-based; design: dose 300 mg/kg, route intraperitoneal; details: in vivo
Mus musculus [26] = assay: Anticonvulsant activity in Carworth farms No.1 albino mouse assessed as protection against subcutaneous metrazole-induced seizures at 100 mg/kg, ip measured after 4 hrs; assay type: functional, organism-based; design: dose 100 mg/kg
Mus musculus [27] = organism: Mus musculus; assay: Anticonvulsant activity in electric shock-induced Carworth farms No.1 albino mouse assessed as time of peak effect; assay type: functional
Mus musculus [28] = assay: Anticonvulsant activity in Carworth farms No.1 albino mouse assessed as protection against maximum electroshock at 100 mg/kg, ip measured after 4 hrs; assay type: functional, organism-based; design: dose 100 mg/kg
[29] = Neurotoxicity in ip dosed Carworth farms No.1 albino mouse assessed as inability to grasp rotarod measured after 0.25 hrs; assay type: toxicity, organism-based; details: in vivo
Rattus norvegicus [30] = assay: Neurotoxicity in Sprague-Dawley rat assessed as neurological impairment at 30 mg/kg, po measured after 4 hrs; assay type: toxicity, organism-based; design: dose 30 mg/kg, route oral; details: in vivo
Mus musculus [31] = assay: Anticonvulsant activity in ip dosed Carworth farms No.1 albino mouse assessed as protection against subcutaneous metrazole-induced seizures; assay type: functional
Rattus norvegicus [32] = assay: Anticonvulsant activity in Sprague-Dawley rat assessed as protection against maximum electroshock at 30 mg/kg, po measured after 2 hrs; assay type: functional, organism-based; design: dose 30 mg/kg
Rattus norvegicus [33] = assay: Anticonvulsant activity in Sprague-Dawley rat assessed as protection against maximum electroshock at 30 mg/kg, po measured after 0.25 hrs; assay type: functional, organism-based; design: dose 30 mg/kg
Rattus norvegicus [34] = assay: Neurotoxicity in Sprague-Dawley rat assessed as neurological impairment at 30 mg/kg, po measured after 1 hr; assay type: toxicity, organism-based; design: dose 30 mg/kg, route oral; details: in vivo
Rattus norvegicus [35] = assay: Toxicity in Sprague-Dawley rat assessed as mortality at 600 mg/kg, ip measured after 0.5 hrs; assay type: organism-based; design: dose 600 mg/kg, route intraperitoneal; details: in vivo
Rattus norvegicus [36] = assay: Neurotoxicity in Sprague-Dawley rat assessed as neurological impairment at 30 mg/kg, po measured after 2 hrs; assay type: toxicity, organism-based; design: dose 30 mg/kg, route oral; details: in vivo
Rattus norvegicus [37] = assay: Neurotoxicity in Sprague-Dawley rat assessed as neurological impairment at 30 mg/kg, po measured after 0.5 hrs; assay type: toxicity, organism-based; design: dose 30 mg/kg, route oral; details: in vivo
Rattus norvegicus [38] = assay: Toxicity in Sprague-Dawley rat assessed as body weight change in unprotected animal at 600 mg/kg, ip measured after 0.5 hrs; assay type: organism-based; design: dose 600 mg/kg, route intraperitoneal; details: in vivo
Rattus norvegicus [39] = assay: Anticonvulsant activity in Sprague-Dawley rat assessed as protection against maximum electroshock at 30 mg/kg, po measured after 0.5 hrs; assay type: functional, organism-based; design: dose 30 mg/kg
Rattus norvegicus [40] = assay: Anticonvulsant activity in Sprague-Dawley rat assessed as protection against maximum electroshock at 30 mg/kg, po measured after 4 hrs; assay type: functional, organism-based; design: dose 30 mg/kg
Rattus norvegicus [41] = assay: Neurotoxicity in Sprague-Dawley rat assessed as neurological impairment at 30 mg/kg, po measured after 0.25 hrs; assay type: toxicity, organism-based; design: dose 30 mg/kg, route oral; details: in vivo
Mus musculus [42] = assay: Neurotoxicity in Carworth farms No.1 albino mouse assessed as inability to grasp rotarod at 300 mg/kg, ip measured after 0.5 hrs; assay type: toxicity, organism-based; design: dose 300 mg/kg, route intraperitoneal; details: in vivo
Rattus norvegicus [43] = assay: Anticonvulsant activity in Sprague-Dawley rat assessed as protection against maximum electroshock at 30 mg/kg, po measured after 1 hr; assay type: functional, organism-based; design: dose 30 mg/kg
Rattus norvegicus [44] = assay: Toxicity in Sprague-Dawley rat assessed as body weight change in protected animals at 600 mg/kg, ip measured after 0.5 hrs; assay type: organism-based; design: dose 600 mg/kg, route intraperitoneal; details: in vivo
Mus musculus [45] = assay: Anticonvulsant activity in ip dosed Carworth farms No.1 albino mouse assessed as protection against maximum electroshock; assay type: functional
Rattus norvegicus [46] = assay: Anticonvulsant activity in Sprague-Dawley rat assessed as protection against pilocarpine-induced status at 600 mg/kg, ip measured after 0.5 hrs; assay type: functional, organism-based; design: dose 600 mg/kg
Mus musculus [47] = organism: Mus musculus; assay: Anticonvulsant activity in maximum electroshock-induced Carworth farms No.1 albino mouse assessed as time of peak effect; assay type: functional

CCOC(=O)CN1C(=O)[C@H](c2ccccc2)N2CCCC[C@H]2C1=O
Activity (Mus musculus [1]): Active
Activity (Mus musculus [2]): inactive
Activity (Mus musculus [3]): inactive
Activity (Mus musculus [4]): Non-toxic
Activity (Mus musculus [5]): inactive
Activity (Mus musculus [6]): inactive
ED50 (Mus musculus [7]): 55.3 mg/kg
Activity (Mus musculus [8]): Non-toxic
Activity (Mus musculus [9]): Active
Activity (Mus musculus [10]): inactive
Activity (Mus musculus [11]): Non-toxic
Activity (Mus musculus [12]): Active
Activity (Mus musculus [13]): inactive
Activity (Mus musculus [14]): Non-toxic
Activity (Mus musculus [15]): inactive
Activity (Mus musculus [16]): Non-toxic
Activity (Mus musculus [17]): inactive
Activity (Mus musculus [18]): Non-toxic
Activity (Mus musculus [19]): inactive
Activity (Mus musculus [20]): inactive
Activity (Mus musculus [21]): inactive
Activity (Mus musculus [22]): inactive
Activity (Mus musculus [23]): Non-toxic
Activity (Mus musculus [24]): Non-toxic
Activity (Mus musculus [25]): Non-toxic
Activity (Mus musculus [26]): inactive
Time (Mus musculus [27]): 0.25 h
Activity (Mus musculus [28]): inactive

O=C1NC(=O)[C@H](c2ccccc2)N2CCCC[C@H]12
Activity (Mus musculus [1]): inactive
TD50 at 0.25 h [29]: 151 mg/kg
Activity (Rattus norvegicus [30]): Non-toxic
Activity (Mus musculus [2]): Active
Activity (Mus musculus [3]): inactive
ED50 (Mus musculus [31]): 99.2 mg/kg
Activity (Rattus norvegicus [32]): inactive
Activity (Rattus norvegicus [33]): inactive
Activity (Mus musculus [4]): Non-toxic
Activity (Rattus norvegicus [34]): Non-toxic
Activity (Mus musculus [5]): Active
Activity (Rattus norvegicus [35]): Toxic
Activity (Mus musculus [6]): inactive
ED50 (Mus musculus [7]): 32.3 mg/kg
Activity (Rattus norvegicus [36]): Non-toxic
Activity (Rattus norvegicus [37]): Non-toxic
Activity (Rattus norvegicus [38]): -31 g
Activity (Rattus norvegicus [39]): inactive
Activity (Mus musculus [8]): Non-toxic
Activity (Mus musculus [9]): Active
Activity (Mus musculus [10]): inactive
Activity (Mus musculus [11]): Toxic
Activity (Mus musculus [12]): Active
Activity (Rattus norvegicus [40]): inactive
Activity (Mus musculus [13]): Active
Activity (Mus musculus [14]): Non-toxic
Activity (Mus musculus [15]): inactive
Activity (Rattus norvegicus [41]): Non-toxic
Activity (Mus musculus [42]): Toxic
Activity (Mus musculus [16]): Non-toxic
Activity (Rattus norvegicus [43]): inactive
Activity (Mus musculus [17]): inactive
Activity (Rattus norvegicus [44]): -30 g
Activity (Mus musculus [18]): Non-toxic
Activity (Mus musculus [19]): inactive
Activity (Mus musculus [20]): inactive
Activity (Mus musculus [21]): inactive
ED50 (Mus musculus [45]): 95.7 mg/kg
Activity (Mus musculus [22]): inactive
Activity (Rattus norvegicus [46]): inactive
Activity (Mus musculus [23]): Non-toxic
Activity (Mus musculus [24]): Non-toxic
Activity (Mus musculus [26]): inactive
Time (Mus musculus [27]): 0.25 h
Activity (Mus musculus [28]): inactive
Time (Mus musculus [47]): 0.5 h

O=C1NC(=O)C(c2ccccc2)(c2ccccc2)N1 [PHENYTOIN]
ED50 (Mus musculus [31]): > 50 mg/kg
ED50 (Mus musculus [45]): 5.64 mg/kg
Time (Mus musculus [47]): 1 h
